The results in this text go back to ChEMBL document CHEMBL1132633, “Secondary structure peptide mimetics: design, synthesis, and evaluation of beta-strand mimetic thrombin inhibitors” (J Med Chem, 1999).

In one experiment the target is T1, Serine protease 1 (Bos taurus, UniProt P00760).
T1 sequence (P00760 whole entry): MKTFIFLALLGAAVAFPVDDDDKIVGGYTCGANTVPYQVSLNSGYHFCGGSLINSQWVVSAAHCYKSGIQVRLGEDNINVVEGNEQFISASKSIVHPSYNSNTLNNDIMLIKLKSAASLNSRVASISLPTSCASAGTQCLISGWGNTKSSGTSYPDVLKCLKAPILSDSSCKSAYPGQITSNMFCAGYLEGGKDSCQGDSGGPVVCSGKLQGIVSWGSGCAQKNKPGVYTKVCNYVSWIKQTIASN
Nature of the experiment: Inhibitory concentration against trypsin.

In experiment [1] the target is T2, Coagulation factor X (Homo sapiens, UniProt P00742). Description: Inhibition constant against Coagulation factor Xa.
T2 sequence (P00742 41-179 limits assumed): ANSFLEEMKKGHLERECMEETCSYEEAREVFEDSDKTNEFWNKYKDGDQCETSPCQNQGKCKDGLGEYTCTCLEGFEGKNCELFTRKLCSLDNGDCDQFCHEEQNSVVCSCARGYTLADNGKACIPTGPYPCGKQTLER
T2 sequence (P00742 235-488 limits assumed): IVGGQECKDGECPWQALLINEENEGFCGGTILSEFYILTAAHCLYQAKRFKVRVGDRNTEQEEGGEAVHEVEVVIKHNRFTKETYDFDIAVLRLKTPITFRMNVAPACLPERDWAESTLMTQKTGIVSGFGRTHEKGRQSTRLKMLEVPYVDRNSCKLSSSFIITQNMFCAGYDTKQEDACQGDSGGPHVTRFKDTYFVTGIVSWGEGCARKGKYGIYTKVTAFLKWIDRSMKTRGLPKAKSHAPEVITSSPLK
In experiment [2] the target is T3, Coagulation factor VII (Homo sapiens, UniProt P08709).
T3 sequence (P08709 whole entry): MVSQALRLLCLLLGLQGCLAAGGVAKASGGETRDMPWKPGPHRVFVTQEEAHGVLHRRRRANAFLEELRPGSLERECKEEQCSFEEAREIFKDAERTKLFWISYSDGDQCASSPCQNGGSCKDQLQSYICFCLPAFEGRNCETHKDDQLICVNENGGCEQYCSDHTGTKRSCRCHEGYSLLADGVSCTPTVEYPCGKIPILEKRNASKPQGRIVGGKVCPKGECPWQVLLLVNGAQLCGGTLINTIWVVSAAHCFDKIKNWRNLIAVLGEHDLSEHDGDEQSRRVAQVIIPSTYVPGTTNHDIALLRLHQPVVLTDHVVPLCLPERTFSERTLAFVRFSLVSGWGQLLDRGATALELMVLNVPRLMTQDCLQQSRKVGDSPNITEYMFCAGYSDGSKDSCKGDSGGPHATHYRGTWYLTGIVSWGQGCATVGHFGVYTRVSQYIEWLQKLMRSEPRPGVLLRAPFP
Description: Inhibition constant against coagulation factor VIIa.

For experiment [3], the target named is T4, Prothrombin (Homo sapiens, UniProt P00734). Description: Inhibitory concentration against thrombin.
In experiment [4] the target is T5, Tissue-type plasminogen activator (Homo sapiens, UniProt P00750). Description: Inhibitory concentration against Tissue type plasminogen activator.
T5 sequence (P00750 whole entry): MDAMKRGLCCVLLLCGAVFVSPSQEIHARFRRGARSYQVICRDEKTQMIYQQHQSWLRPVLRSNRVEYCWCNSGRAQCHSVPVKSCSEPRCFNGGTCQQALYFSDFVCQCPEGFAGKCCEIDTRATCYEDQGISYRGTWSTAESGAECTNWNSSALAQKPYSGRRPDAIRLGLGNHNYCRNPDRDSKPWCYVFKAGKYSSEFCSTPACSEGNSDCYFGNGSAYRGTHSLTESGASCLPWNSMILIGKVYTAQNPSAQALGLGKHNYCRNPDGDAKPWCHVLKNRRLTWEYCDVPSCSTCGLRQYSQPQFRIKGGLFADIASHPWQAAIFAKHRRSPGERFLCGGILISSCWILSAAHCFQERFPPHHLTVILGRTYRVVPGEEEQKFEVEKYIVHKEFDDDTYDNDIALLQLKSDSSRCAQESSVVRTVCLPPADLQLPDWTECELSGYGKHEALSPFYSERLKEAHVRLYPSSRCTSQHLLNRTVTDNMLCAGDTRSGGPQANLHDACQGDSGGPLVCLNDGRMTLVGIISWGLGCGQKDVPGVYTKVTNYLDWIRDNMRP
Experiment [5] concerns the target Urokinase-type plasminogen activator (Homo sapiens, UniProt P00749). Nature of the experiment: Inhibitory concentration against Urokinase-type plasminogen activator.
In experiment [6] the target is T6, Plasminogen (Rattus norvegicus, UniProt Q01177). Description: Inhibition constant against plasmin.
T6 sequence (Q01177 97-581 limits assumed): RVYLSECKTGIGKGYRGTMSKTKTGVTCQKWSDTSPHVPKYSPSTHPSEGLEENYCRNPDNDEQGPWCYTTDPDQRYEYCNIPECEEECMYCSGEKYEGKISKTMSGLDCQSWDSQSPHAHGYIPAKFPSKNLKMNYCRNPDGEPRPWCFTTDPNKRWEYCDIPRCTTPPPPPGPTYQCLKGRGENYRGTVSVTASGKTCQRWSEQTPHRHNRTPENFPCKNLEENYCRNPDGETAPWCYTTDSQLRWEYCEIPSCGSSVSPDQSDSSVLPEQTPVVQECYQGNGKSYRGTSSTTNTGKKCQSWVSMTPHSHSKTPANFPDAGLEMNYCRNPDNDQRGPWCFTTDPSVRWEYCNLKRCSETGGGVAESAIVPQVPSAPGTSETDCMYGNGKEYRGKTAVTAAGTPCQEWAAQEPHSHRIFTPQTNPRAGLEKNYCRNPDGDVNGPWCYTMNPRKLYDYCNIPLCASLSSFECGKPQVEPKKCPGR
T6 sequence (Q01177 582-812 limits assumed): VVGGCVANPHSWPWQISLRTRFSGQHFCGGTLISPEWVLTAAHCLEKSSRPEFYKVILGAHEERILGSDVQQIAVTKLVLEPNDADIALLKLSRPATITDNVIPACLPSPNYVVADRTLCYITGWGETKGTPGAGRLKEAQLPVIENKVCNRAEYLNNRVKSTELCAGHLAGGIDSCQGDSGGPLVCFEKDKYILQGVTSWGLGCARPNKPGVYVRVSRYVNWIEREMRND
Experiment [7] deals with T5, Tissue-type plasminogen activator. Nature of the experiment: Compound was evaluated for the inhibition of Tissue type plasminogen activator (tissue plasminogen activator).
Experiment [8] concerns the target T3, Coagulation factor VII. Description: Inhibitory concentration against coagulation factor VIIa.
Experiment [9] deals with T2, Coagulation factor X. Nature of the experiment: Inhibitory concentration against Coagulation factor Xa.
The target of experiment [10] is T6, Plasminogen. Nature of the experiment: Inhibitory concentration against plasmin.
For experiment [11], the target named is T4, Prothrombin.
Description: Inhibitory constant on rate against thrombin.

Molecules are shown by their SMILES.

Regarding `N=C(N)NCCC[C@H](NC(=O)[C@@H]1CCC2CC[C@@](N)(Cc3ccccc3)CN21)C(=O)c1nc2ccccc2s1` (stereo in doubt; form 2) [listing 1 of 2 here], the inhibition constant (Ki) at Serine protease 1 is 0.23 nM; at Coagulation factor X [1], 19.3 nM; on Coagulation factor VII [2], 200 nM; on Prothrombin [3] it was 0.85 nM; in experiment [4], 93 nM; in experiment [5], 335 nM. For the same compound, at Plasminogen [6], the Ki worked out at 251 nM.

On to `NC(N)=NCCC[C@@H](CCl)NC(=O)[C@@H]1CCCN1C(=O)[C@H](N)Cc1ccccc1`, for which the IC50 in experiment [7] amounted to 106 nM; at Prothrombin [3], 1.5 nM; against Coagulation factor VII [8] it was 200 nM; on Coagulation factor X [9], 165 nM; in [5], 508 nM; on Plasminogen [10], 699 nM.

On to `N=C(N)NCCC[C@H](NC(=O)[C@@H]1CCN2CC[C@@](N)(Cc3ccccc3)CN12)C(=O)C(=O)NCc1ccccc1`, for which the k on at Prothrombin [11] worked out at 880000 M⁻¹ s⁻¹.

`COc1ccc(CCNC(=O)C(=O)[C@H](CCCNC(=N)N)NC(=O)[C@@H]2CCN3CC[C@@](N)(Cc4ccccc4)CN23)cc1` displayed a Ki on Prothrombin [3] of 0.45 nM.

Compound `N=C(N)NCCC[C@H](NC(=O)[C@@H]1CCC2CC[C@@](N)(Cc3ccccc3)CN21)C(=O)c1nc2ccccc2s1` (stereo in doubt; form 1) [listing 1 of 2 here] displayed a k on on Prothrombin [11] greater than 1e+07 M⁻¹ s⁻¹.

In turn, `NCCCC[C@H](NC(=O)[C@@H]1CCN2CC[C@@](N)(Cc3ccccc3)CN12)C(=O)C(=O)NCc1ccccc1` returned a Ki on Prothrombin [3] of 2000 nM.

Regarding `N=C(N)NCCC[C@H](NC(=O)[C@@H]1CCN2CC[C@@](N)(Cc3ccccc3)CN12)C(=O)C(=O)NCCc1ccccc1`, at Prothrombin [11], the k on worked out at 640000 M⁻¹ s⁻¹. The Ki on Serine protease 1 is 0.027 nM; at Prothrombin [3] it was 0.071 nM.

In the case of `N=C(N)NCCC[C@@H](CCl)NC(=O)[C@@H]1CCN2CC[C@@](N)(Cc3ccccc3)CN12`, at Prothrombin [11], the k on was 2.4e+06 M⁻¹ s⁻¹. For the same compound, the IC50 on Prothrombin [3] came to 1.2 nM; in [4], 632 nM; at Coagulation factor VII [8] it was 140 nM; against Coagulation factor X [9], 385 nM; in experiment [5] it was 927 nM; against Plasminogen [10], 978 nM.

On Prothrombin [11], `N=C(N)NCCC[C@H](NC(=O)[C@@H]1CCN2CC[C@@](N)(Cc3ccccc3)CN12)C(=O)c1nccs1` displayed a k on greater than 1e+07 M⁻¹ s⁻¹. The compound also gave a Ki at Prothrombin [3] of 2.4 nM.

Compound `N=C(N)NCCC[C@H](NC(=O)[C@@H]1CCN2CC[C@@](N)(Cc3ccccc3)CN12)C(=O)c1nc2ccccc2s1` returned a k on at Prothrombin [11] greater than 1e+07 M⁻¹ s⁻¹. Also, the Ki at Serine protease 1 is 0.64 nM; on Coagulation factor X [1], 270 nM; at Coagulation factor VII [2] it was 270 nM; in [4] it was 495 nM; in experiment [5], 600 nM; at Plasminogen [6] it was 415 nM.

Consider `N=C(N)NCCC[C@H](NC(=O)[C@@H]1CCC2CC[C@@](N)(Cc3ccccc3)CN21)C(=O)c1nc2ccccc2s1` (stereo in doubt; form 1) [listing 2 of 2 here], for which, at Prothrombin [3], the affinity corresponds to a Ki of 10 nM.

`N=C(N)NCCC[C@H](NC(=O)[C@@H]1CCC2CC[C@@](N)(Cc3ccccc3)CN21)C(=O)c1nc2ccccc2s1` (stereo in doubt; form 2) [listing 2 of 2 here] yielded a k on at Prothrombin [11] greater than 1e+07 M⁻¹ s⁻¹.

For the compound `COc1ccc(CCNC(=O)C(=O)[C@H](CCCN=C(N)N)NC(=O)[C@@H]2CCN3CC[C@@](N)(Cc4ccccc4)CN23)cc1`, on Prothrombin [11], the k on was determined as 250000 M⁻¹ s⁻¹.

On Prothrombin [11], `N=C(N)NCCC[C@H](NC(=O)[C@@H]1CCN2CC[C@@](N)(Cc3ccccc3)CN12)C(=O)C(=O)NCCc1ccc(Cl)cc1` returned a k on of 380000 M⁻¹ s⁻¹. The same compound yielded a Ki at Prothrombin [3] of 0.31 nM.
